Source: the kinase profiling compilation of Christmann-Franck et al. (2016)

Columns and labels:
Experiment in all cases: radiometric filter-binding kinase assay
ERBB4 (human) = ERBB4 (human) (UniProt Q15303)
CaMK1 (human) = CaMK1 (human) (UniProt Q14012)
PRKACA (human) = PRKACA (human) (UniProt P17612)
PRKCA (human) = PRKCA (human) (UniProt P17252)
MINK1 (human) = MINK1 (human) (UniProt Q8N4C8)
EPHA2 (human) = EPHA2 (human) (UniProt P29317)
MST4 (human) = MST4 (human) (UniProt Q9P289)
MARK1 (human) = MARK1 (human) (UniProt Q9P0L2)
NUAK1 (human) = NUAK1 (human) (UniProt O60285)
CSK (human) = CSK (human) (UniProt P41240)
EPHB2 (human) = EPHB2 (human) (UniProt P29323)
PHKG1 (human) = PHKG1 (human) (UniProt Q16816)
JAK2 JH1 JH2 (human) = JAK2 JH1 JH2 (human) (UniProt O60674)
PAK7 (human) = PAK7 (human) (UniProt Q9P286)
INSR (human) = INSR (human) (UniProt P06213)
INSRR (human) = INSRR (human) (UniProt P14616)
Sequence of INSRR (human) (P14616 whole entry, looked up): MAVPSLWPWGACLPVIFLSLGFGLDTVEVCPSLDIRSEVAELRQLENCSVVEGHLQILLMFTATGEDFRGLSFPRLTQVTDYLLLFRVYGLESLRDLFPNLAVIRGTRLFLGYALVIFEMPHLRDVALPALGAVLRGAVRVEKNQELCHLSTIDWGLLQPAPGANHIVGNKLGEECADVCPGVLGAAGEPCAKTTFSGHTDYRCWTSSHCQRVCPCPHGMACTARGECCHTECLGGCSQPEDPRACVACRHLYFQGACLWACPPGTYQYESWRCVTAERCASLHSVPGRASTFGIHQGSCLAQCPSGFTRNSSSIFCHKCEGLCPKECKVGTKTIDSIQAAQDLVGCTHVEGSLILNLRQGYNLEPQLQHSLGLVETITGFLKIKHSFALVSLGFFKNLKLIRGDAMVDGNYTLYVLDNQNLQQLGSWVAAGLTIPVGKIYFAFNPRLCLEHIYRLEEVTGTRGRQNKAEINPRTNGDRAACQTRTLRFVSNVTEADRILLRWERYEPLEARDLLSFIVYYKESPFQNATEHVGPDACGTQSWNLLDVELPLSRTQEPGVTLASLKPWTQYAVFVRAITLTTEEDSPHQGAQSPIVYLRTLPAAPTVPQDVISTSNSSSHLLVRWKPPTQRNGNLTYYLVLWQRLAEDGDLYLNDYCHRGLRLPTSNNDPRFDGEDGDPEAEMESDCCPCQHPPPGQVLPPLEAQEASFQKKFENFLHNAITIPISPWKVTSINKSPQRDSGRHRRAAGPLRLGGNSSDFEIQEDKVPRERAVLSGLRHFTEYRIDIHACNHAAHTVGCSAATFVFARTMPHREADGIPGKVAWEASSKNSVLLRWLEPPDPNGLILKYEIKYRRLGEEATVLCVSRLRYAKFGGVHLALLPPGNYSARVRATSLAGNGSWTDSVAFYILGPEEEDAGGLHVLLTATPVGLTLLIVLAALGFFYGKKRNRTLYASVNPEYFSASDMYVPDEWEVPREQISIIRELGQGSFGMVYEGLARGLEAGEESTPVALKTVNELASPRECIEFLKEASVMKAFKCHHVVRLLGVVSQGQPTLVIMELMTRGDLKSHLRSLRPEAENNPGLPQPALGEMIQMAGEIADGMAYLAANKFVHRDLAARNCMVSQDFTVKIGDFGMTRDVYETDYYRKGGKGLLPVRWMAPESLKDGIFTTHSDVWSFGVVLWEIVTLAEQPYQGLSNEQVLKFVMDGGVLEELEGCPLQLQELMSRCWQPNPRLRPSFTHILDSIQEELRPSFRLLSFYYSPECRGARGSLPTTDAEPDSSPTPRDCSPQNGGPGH

DYRK2 (human) = DYRK2 (human) (UniProt Q92630)
Sequence of DYRK2 (human) (Q92630 whole entry, looked up): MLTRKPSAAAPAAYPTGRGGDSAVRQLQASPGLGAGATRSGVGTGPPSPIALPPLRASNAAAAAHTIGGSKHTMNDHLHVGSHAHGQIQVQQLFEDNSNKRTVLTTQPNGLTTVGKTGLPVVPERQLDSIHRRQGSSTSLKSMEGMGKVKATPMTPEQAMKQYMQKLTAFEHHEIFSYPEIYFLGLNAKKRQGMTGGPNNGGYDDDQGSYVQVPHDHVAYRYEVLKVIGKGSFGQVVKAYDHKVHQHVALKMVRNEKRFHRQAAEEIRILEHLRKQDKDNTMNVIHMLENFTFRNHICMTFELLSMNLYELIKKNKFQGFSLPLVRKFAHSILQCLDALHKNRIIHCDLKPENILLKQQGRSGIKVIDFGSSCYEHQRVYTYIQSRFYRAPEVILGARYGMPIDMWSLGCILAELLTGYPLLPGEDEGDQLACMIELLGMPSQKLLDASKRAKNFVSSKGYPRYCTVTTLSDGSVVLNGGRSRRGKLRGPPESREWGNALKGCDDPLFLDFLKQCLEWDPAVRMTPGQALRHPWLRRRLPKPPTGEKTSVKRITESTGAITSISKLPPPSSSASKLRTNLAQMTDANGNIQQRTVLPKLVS

RPS6KA5 KD1 KD2 (human) = RPS6KA5 KD1 KD2 (human) (UniProt O75582)
Sequence of RPS6KA5 KD1 KD2 (human) (O75582 whole entry, looked up): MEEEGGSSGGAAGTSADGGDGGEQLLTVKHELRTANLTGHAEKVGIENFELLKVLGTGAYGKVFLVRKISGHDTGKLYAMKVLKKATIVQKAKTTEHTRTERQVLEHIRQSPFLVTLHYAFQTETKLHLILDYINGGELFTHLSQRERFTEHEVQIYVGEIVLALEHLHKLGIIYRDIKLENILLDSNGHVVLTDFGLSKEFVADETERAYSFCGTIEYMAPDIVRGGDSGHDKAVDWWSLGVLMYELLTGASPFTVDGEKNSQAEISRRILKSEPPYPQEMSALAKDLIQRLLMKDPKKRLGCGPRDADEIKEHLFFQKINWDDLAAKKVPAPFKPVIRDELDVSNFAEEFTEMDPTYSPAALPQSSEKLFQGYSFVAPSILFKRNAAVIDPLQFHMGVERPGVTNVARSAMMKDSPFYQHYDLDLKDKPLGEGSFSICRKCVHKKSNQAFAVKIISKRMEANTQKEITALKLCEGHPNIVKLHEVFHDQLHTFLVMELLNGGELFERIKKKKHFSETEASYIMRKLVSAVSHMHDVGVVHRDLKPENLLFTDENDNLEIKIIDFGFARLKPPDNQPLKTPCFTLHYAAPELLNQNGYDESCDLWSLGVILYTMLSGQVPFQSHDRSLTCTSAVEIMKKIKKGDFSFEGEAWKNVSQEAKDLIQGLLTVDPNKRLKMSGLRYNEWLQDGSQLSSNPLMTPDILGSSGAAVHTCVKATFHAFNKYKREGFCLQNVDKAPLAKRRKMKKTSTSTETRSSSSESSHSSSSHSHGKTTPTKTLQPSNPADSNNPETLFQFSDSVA

CAMKK2 (human) = CAMKK2 (human) (UniProt Q96RR4)
CDK2 CCNA2 (human) = CDK2 CCNA2 (human) (UniProt P20248+P24941)
MAP2K1 (human) = MAP2K1 (human) (UniProt Q02750)
NEK2 (human) = NEK2 (human) (UniProt P51955)
HIPK3 (human) = HIPK3 (human) (UniProt Q9H422)
MAPK15 (human) = MAPK15 (human) (UniProt Q8TD08)
EPHA4 (human) = EPHA4 (human) (UniProt P54764)
SRPK1 (human) = SRPK1 (human) (UniProt Q96SB4)
NEK6 (human) = NEK6 (human) (UniProt Q9HC98)
PRKAA1 or PRKAA2 (rat) = details: accession and sequence are those of the human protein
BRSK1 (human) = BRSK1 (human) (UniProt Q8TDC3)
RIPK2 (human) = RIPK2 (human) (UniProt O43353)
MKNK1 (human) = MKNK1 (human) (UniProt Q9BUB5)
MAPKAPK2 (human) = MAPKAPK2 (human) (UniProt P49137)
LCK (mouse) = details: accession and sequence are those of the human protein
BTK (human) = BTK (human) (UniProt Q06187)

Sequence of ERBB4 (human) (Q15303 whole entry, looked up): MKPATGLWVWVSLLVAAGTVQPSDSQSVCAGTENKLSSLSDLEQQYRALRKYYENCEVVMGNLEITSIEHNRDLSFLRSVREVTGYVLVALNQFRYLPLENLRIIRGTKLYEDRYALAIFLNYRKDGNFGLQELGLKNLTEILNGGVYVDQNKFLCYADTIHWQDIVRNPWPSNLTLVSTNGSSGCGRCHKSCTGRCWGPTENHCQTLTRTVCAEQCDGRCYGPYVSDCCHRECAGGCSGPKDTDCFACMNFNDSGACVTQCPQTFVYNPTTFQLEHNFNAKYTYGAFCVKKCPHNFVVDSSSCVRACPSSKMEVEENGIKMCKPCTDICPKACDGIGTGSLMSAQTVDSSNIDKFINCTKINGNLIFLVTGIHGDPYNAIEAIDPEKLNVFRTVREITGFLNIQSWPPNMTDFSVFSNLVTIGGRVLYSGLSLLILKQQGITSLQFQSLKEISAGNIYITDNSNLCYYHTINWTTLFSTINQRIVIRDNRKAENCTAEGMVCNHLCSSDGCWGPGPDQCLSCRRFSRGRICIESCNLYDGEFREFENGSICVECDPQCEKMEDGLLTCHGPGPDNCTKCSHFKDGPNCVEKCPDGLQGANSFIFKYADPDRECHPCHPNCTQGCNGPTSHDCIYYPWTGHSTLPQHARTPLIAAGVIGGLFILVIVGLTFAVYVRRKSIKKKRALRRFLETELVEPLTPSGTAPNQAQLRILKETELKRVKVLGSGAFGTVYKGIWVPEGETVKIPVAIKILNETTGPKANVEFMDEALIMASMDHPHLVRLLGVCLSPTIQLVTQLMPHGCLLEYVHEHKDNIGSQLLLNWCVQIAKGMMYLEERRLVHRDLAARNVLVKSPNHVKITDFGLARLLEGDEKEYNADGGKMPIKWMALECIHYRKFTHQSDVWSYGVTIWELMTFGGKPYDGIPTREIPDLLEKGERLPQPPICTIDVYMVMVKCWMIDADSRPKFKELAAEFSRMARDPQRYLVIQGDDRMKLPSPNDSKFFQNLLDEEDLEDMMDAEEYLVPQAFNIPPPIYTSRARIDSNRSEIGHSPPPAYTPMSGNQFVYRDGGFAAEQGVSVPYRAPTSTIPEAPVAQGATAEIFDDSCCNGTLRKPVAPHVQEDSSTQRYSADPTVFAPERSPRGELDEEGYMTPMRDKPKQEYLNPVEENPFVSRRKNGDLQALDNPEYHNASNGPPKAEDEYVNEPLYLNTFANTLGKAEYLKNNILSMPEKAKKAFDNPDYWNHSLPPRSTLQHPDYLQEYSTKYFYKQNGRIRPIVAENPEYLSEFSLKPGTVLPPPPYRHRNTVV
Sequence of EPHA2 (human) (P29317 whole entry, looked up): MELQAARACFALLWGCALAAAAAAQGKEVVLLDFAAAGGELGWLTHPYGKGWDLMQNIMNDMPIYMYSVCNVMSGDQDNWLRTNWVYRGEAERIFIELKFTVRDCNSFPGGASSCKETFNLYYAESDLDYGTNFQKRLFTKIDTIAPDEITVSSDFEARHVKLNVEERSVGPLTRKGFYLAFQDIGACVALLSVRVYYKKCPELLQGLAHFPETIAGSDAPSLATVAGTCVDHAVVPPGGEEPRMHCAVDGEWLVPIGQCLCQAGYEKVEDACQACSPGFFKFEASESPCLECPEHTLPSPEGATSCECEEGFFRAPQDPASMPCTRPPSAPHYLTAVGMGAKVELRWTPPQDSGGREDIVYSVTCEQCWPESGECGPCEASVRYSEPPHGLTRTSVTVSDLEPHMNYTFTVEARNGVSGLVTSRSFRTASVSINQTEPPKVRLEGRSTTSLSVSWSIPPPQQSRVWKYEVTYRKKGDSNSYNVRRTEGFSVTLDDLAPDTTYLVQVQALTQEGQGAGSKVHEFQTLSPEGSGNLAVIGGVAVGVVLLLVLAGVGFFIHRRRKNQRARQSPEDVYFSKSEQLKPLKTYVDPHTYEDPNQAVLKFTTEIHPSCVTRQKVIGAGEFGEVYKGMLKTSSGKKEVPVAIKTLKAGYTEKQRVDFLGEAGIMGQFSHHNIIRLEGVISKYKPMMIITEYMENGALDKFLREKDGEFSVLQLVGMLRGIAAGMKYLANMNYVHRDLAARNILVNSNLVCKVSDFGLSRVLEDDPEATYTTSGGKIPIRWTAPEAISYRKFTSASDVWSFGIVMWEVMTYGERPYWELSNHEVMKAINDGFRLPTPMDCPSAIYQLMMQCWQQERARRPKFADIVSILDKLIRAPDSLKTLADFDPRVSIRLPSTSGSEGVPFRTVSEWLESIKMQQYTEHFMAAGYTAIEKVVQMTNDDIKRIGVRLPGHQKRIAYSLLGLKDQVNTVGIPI

`O=C(Nc1nc2cc(C(F)(F)F)cc(NC3CC3)n2n1)c1cccnc1` gave a residual activity (ERBB4 (human); compound 0.01 µM) of 106%, a residual activity (ERBB4 (human); compound 0.1 µM) of 88% and a residual activity (ERBB4 (human); compound 1.0 µM) of 88%. The residual activity (CaMK1 (human); compound 0.01 µM) was 116%, the residual activity (CaMK1 (human); compound 0.1 µM) was 128% and the residual activity (CaMK1 (human); compound 1.0 µM) was 109%. The residual activity (PRKACA (human); compound 0.01 µM) was 98%, the residual activity (PRKACA (human); compound 0.1 µM) was 99% and the residual activity (PRKACA (human); compound 1.0 µM) was 88%. The residual activity (PRKCA (human); compound 0.01 µM) was 87%, the residual activity (PRKCA (human); compound 0.1 µM) was 89% and the residual activity (PRKCA (human); compound 1.0 µM) was 94%. For the same compound, the residual activity (MINK1 (human); compound 0.01 µM) was 125%, the residual activity (MINK1 (human); compound 0.1 µM) was 113% and the residual activity (MINK1 (human); compound 1.0 µM) was 120%. It also gave a residual activity (EPHA2 (human); compound 0.01 µM) of 95%, a residual activity (EPHA2 (human); compound 0.1 µM) of 93% and a residual activity (EPHA2 (human); compound 1.0 µM) of 100%. The residual activity (MST4 (human); compound 0.01 µM) was 106%, the residual activity (MST4 (human); compound 0.1 µM) was 99% and the residual activity (MST4 (human); compound 1.0 µM) was 106%. The residual activity (MARK1 (human); compound 0.01 µM) was 93%, the residual activity (MARK1 (human); compound 0.1 µM) was 90% and the residual activity (MARK1 (human); compound 1.0 µM) was 86%. The residual activity (NUAK1 (human); compound 0.01 µM) was 100%, the residual activity (NUAK1 (human); compound 0.1 µM) was 116% and the residual activity (NUAK1 (human); compound 1.0 µM) was 98%. The residual activity (CSK (human); compound 0.01 µM) was 96%, the residual activity (CSK (human); compound 0.1 µM) was 95% and the residual activity (CSK (human); compound 1.0 µM) was 89%. For the same compound, the residual activity (EPHB2 (human); compound 0.1 µM) was 108%, the residual activity (EPHB2 (human); compound 1.0 µM) was 95% and the residual activity (PHKG1 (human); compound 0.01 µM) was 104%. For the same compound, the residual activity (PHKG1 (human); compound 0.1 µM) was 115%, the residual activity (PHKG1 (human); compound 1.0 µM) was 92% and the residual activity (JAK2 JH1 JH2 (human); compound 0.01 µM) was 114%. It also gave a residual activity (JAK2 JH1 JH2 (human); compound 0.1 µM) of 100%, a residual activity (JAK2 JH1 JH2 (human); compound 1.0 µM) of 100% and a residual activity (PAK7 (human); compound 0.01 µM) of 97%. The residual activity (PAK7 (human); compound 0.1 µM) was 114%, the residual activity (PAK7 (human); compound 1.0 µM) was 91% and the residual activity (INSR (human); compound 0.01 µM) was 107%. For the same compound, the residual activity (INSR (human); compound 1.0 µM) was 100%, the residual activity (INSRR (human); compound 0.01 µM) was 91% and the residual activity (INSRR (human); compound 0.1 µM) was 104%. The residual activity (INSRR (human); compound 1.0 µM) was 94%, the residual activity (DYRK2 (human); compound 0.01 µM) was 104% and the residual activity (DYRK2 (human); compound 0.1 µM) was 92%. It also gave a residual activity (DYRK2 (human); compound 1.0 µM) of 90%, a residual activity (RPS6KA5 KD1 KD2 (human); compound 0.01 µM) of 114% and a residual activity (RPS6KA5 KD1 KD2 (human); compound 0.1 µM) of 114%. For the same compound, the residual activity (RPS6KA5 KD1 KD2 (human); compound 1.0 µM) was 95%, the residual activity (CAMKK2 (human); compound 0.01 µM) was 108% and the residual activity (CAMKK2 (human); compound 0.1 µM) was 96%. The residual activity (CAMKK2 (human); compound 1.0 µM) was 105%, the residual activity (CDK2 CCNA2 (human); compound 0.01 µM) was 95% and the residual activity (CDK2 CCNA2 (human); compound 0.1 µM) was 98%. For the same compound, the residual activity (CDK2 CCNA2 (human); compound 1.0 µM) was 85%, the residual activity (MAP2K1 (human); compound 0.01 µM) was 72% and the residual activity (MAP2K1 (human); compound 0.1 µM) was 76%. For the same compound, the residual activity (MAP2K1 (human); compound 1.0 µM) was 61%, the residual activity (NEK2 (human); compound 0.01 µM) was 97% and the residual activity (NEK2 (human); compound 0.1 µM) was 97%. For the same compound, the residual activity (NEK2 (human); compound 1.0 µM) was 96%, the residual activity (HIPK3 (human); compound 0.01 µM) was 101% and the residual activity (HIPK3 (human); compound 0.1 µM) was 102%. For the same compound, the residual activity (HIPK3 (human); compound 1.0 µM) was 96%, the residual activity (MAPK15 (human); compound 0.01 µM) was 102% and the residual activity (MAPK15 (human); compound 0.1 µM) was 110%. It also gave a residual activity (MAPK15 (human); compound 1.0 µM) of 102%, a residual activity (EPHA4 (human); compound 0.01 µM) of 101% and a residual activity (EPHA4 (human); compound 0.1 µM) of 124%. For the same compound, the residual activity (EPHA4 (human); compound 1.0 µM) was 93%, the residual activity (SRPK1 (human); compound 0.01 µM) was 100% and the residual activity (SRPK1 (human); compound 0.1 µM) was 90%. The residual activity (SRPK1 (human); compound 1.0 µM) was 102%, the residual activity (NEK6 (human); compound 0.01 µM) was 114% and the residual activity (NEK6 (human); compound 0.1 µM) was 113%. It also gave a residual activity (NEK6 (human); compound 1.0 µM) of 101%, a residual activity (PRKAA1 or PRKAA2 (rat); compound 0.01 µM) of 108% and a residual activity (PRKAA1 or PRKAA2 (rat); compound 0.1 µM) of 93%. The residual activity (PRKAA1 or PRKAA2 (rat); compound 1.0 µM) was 108%, the residual activity (BRSK1 (human); compound 0.01 µM) was 102% and the residual activity (BRSK1 (human); compound 0.1 µM) was 90%. The residual activity (BRSK1 (human); compound 1.0 µM) was 95%, the residual activity (RIPK2 (human); compound 0.01 µM) was 89% and the residual activity (RIPK2 (human); compound 0.1 µM) was 87%. For the same compound, the residual activity (RIPK2 (human); compound 1.0 µM) was 89%, the residual activity (MKNK1 (human); compound 0.01 µM) was 94% and the residual activity (MKNK1 (human); compound 0.1 µM) was 99%. It also gave a residual activity (MKNK1 (human); compound 1.0 µM) of 98%, a residual activity (MAPKAPK2 (human); compound 0.01 µM) of 99% and a residual activity (MAPKAPK2 (human); compound 0.1 µM) of 102%. The residual activity (MAPKAPK2 (human); compound 1.0 µM) was 99%, the residual activity (LCK (mouse); compound 0.01 µM) was 106% and the residual activity (LCK (mouse); compound 0.1 µM) was 97%. For the same compound, the residual activity (LCK (mouse); compound 1.0 µM) was 95%, the residual activity (BTK (human); compound 0.01 µM) was 108% and the residual activity (BTK (human); compound 0.1 µM) was 103%. For the same compound, the residual activity (BTK (human); compound 1.0 µM) was 101%.
